Data taken from ChEMBL document CHEMBL1201862, “PubChem BioAssay data set” (2004).
Activity calls are given as the source filed them.

How the values were obtained:
[1] = target: T1, Kappa-type opioid receptor (Homo sapiens, UniProt P41145); format: functional
[2] = target: T2, Delta-type opioid receptor (Homo sapiens, UniProt P41143); assay: DOR agonists, SAR follow-up, image-based (AID 2370); format: functional
[3] = target: T1, Kappa-type opioid receptor; assay: KOR antagonists by imaging, SAR follow-up, image-based (AID 2348); format: functional
Mu-type opioid receptor [4] = target: T3, Mu-type opioid receptor (Homo sapiens, UniProt P35372); assay: MOR agonists by imaging, SAR follow-up, image-based (AID 2352); format: functional
T3 sequence (P35372 whole entry): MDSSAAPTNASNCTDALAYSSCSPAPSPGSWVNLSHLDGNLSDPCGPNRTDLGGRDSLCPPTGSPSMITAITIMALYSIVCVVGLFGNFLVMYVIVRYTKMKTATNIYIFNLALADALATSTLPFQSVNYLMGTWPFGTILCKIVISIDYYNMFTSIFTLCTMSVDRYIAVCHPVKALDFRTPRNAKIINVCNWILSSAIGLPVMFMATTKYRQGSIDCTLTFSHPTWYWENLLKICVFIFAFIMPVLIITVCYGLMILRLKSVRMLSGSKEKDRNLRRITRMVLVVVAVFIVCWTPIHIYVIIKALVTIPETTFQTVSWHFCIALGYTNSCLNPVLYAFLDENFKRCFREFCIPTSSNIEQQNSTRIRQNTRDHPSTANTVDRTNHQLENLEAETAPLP

[5] = target: T1, Kappa-type opioid receptor; assay: KOR agonist analogs, imaging readout, SAR follow-up, image-based (AID 2359); format: functional
[6] = target: T1, Kappa-type opioid receptor; assay: SAR analysis of small molecule agonists of the kappa opioid receptor via a luminescent beta-arrestin assay. [Related pubchem assays (depositor defined):AID1777, AID1786, AID1966, AID2133, AID2136, AID2348, AID2352, AID2357, AID2359, AID2370, AID2420, AID2478, AID2491, AID2492, AID2493, AID2497, AID2498, AID2500, AID449737, AID488822, AID488842]; format: functional
[7] = target: T2, Delta-type opioid receptor; assay: HTS Image-Based Screen for Agonists of the DOR Receptor. [Related pubchem assays (depositor defined):AID1777, AID1786, AID2133]; format: functional
Mu-type opioid receptor [8] = target: T3, Mu-type opioid receptor; assay: MOR antagonists, SAR follow-up, image-based (AID 2420); format: functional;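 further: compounds added before stimulation of receptor with agonist DAMGO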
[9] = target: T2, Delta-type opioid receptor; assay: HTS Image-Based Screen for Antagonists of the DOR Receptor. [Related pubchem assays (depositor defined):AID1777, AID1785, AID1786, AID2133]; format: functional
[10] = target: T2, Delta-type opioid receptor; assay: DOR antagonists, SAR follow-up, image-based (AID 2357); format: functional
[11] = target: T1, Kappa-type opioid receptor; format: functional; remark: listed apart in the source
Mu-type opioid receptor [12] = target: T3, Mu-type opioid receptor; assay: HTS Image-Based Screen for Agonists of the MOR Receptor. [Related pubchem assays (depositor defined):AID1777, AID1785, AID1786, AID2133]; format: functional
[13] = target: Sphingosine 1-phosphate receptor 1 (Homo sapiens, UniProt P21453); assay: Fluorescence-based counterscreen assay for S1P4 agonists: Cell-based dose response high throughput screening assay to identify agonists of the Sphingosine 1-Phosphate Receptor 1 (S1P1). [Related pubchem assays (depositor defined):AID1509, AID1523, AID1801, AID463107, AID463118, AID463119, AID463122, AID463123, AID463129, AID463225, AID504400, AID504460]; format: functional
Sphingosine 1-phosphate receptor 1, sequence (P21453 whole entry): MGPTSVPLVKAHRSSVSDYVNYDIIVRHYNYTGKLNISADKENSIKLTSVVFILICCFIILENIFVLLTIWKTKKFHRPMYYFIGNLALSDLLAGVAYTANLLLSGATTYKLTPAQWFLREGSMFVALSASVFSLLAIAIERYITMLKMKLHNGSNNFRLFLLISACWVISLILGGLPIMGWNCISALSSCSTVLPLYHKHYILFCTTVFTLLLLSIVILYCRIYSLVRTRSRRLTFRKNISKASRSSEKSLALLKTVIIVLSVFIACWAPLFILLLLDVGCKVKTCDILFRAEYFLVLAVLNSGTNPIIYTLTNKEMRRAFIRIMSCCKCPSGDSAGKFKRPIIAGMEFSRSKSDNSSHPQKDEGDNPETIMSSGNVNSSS

[14] = target: Sphingosine 1-phosphate receptor 2 (Homo sapiens, UniProt O95136); assay: Dose Response Cell Based Assay for Agonists of the S1P2 Receptor. [Related pubchem assays: 729, 736, 843 ]; format: functional
Sphingosine 1-phosphate receptor 2, sequence (O95136 whole entry): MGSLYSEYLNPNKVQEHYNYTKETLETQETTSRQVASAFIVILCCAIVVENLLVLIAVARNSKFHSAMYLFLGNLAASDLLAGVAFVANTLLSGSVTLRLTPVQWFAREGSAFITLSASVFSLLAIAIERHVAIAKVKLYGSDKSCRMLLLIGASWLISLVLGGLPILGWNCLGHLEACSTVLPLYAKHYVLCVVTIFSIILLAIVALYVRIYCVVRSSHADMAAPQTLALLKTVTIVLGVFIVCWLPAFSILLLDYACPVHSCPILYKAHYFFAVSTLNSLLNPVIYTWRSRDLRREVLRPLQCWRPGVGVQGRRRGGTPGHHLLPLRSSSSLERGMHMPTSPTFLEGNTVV

[15] = target: T4, 5-hydroxytryptamine receptor 1A (Homo sapiens, UniProt P08908); format: functional
T4 sequence (P08908 whole entry): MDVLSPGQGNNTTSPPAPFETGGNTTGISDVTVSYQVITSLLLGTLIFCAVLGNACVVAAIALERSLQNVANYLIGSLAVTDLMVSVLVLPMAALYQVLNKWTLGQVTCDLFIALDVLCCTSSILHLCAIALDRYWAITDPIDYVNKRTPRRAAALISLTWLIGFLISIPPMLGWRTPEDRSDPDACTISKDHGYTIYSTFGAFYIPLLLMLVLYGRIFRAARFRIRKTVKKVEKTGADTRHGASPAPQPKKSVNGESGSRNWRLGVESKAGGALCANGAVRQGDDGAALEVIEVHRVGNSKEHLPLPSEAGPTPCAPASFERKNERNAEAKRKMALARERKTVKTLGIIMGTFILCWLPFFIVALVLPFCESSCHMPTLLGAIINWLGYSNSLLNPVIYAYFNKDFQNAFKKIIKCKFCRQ

[16] = target: T5, Sphingosine 1-phosphate receptor 4 (Homo sapiens, UniProt O95977); assay: Fluorescence dose response cell-based high throughput screening assay for agonists of the Sphingosine 1-Phosphate Receptor 4 (S1P4). [Related pubchem assays: 1509 (Primary screen.), 1523 (Confirmation screen in triplicates.)]; format: functional
T5 sequence (O95977 whole entry): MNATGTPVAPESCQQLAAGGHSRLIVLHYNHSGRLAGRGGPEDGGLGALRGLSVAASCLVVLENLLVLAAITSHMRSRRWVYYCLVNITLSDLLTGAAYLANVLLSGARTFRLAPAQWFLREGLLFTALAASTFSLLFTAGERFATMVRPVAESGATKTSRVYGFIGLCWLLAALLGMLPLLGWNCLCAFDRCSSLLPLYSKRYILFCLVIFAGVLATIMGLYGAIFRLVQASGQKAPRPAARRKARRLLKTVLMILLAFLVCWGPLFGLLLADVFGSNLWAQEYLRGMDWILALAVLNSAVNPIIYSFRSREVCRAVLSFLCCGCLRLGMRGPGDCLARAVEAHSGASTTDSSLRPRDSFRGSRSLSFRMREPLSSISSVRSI

[17] = target: T6, Small ubiquitin-related modifier 1 (Homo sapiens, UniProt P63165); assay: inhibitors of SUMO1 partner interactions, dose response, biochemical, FRET (AID 624383); format: functional; details: read-out: IC50_Mean
T6 sequence (P63165 whole entry): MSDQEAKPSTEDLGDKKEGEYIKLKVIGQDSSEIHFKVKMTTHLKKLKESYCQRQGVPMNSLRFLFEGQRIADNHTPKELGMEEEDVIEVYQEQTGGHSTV

[18] = target: T7, Tyrosine-protein phosphatase non-receptor type 12 (Homo sapiens, UniProt Q05209); assay: SAR Selectivity Analysis of small molecule inhibitors of PEST using pCAP in a fluorescence assay. [Related pubchem assays (depositor defined):AID1779, AID1784, AID2135]; format: functional
T7 sequence (Q05209 whole entry): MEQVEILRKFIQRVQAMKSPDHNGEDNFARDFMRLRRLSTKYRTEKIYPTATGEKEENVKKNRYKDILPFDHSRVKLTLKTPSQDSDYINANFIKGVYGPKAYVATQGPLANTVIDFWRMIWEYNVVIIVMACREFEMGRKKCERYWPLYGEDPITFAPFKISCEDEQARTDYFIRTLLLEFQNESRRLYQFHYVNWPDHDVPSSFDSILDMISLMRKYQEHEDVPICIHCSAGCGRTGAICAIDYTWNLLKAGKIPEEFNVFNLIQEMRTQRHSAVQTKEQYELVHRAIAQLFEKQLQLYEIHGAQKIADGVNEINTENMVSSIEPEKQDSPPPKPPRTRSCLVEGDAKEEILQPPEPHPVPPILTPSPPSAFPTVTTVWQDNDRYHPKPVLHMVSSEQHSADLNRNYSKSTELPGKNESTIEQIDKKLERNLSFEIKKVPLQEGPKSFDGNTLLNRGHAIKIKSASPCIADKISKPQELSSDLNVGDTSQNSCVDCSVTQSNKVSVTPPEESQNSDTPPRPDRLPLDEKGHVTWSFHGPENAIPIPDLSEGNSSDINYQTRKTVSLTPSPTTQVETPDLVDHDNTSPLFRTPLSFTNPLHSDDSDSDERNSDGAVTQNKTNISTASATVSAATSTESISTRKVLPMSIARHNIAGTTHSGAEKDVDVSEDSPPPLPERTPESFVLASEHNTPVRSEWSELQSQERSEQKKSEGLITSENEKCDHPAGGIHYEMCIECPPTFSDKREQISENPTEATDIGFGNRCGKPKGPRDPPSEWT

[19] = target: T8, Tyrosine-protein phosphatase non-receptor type 7 (Homo sapiens, UniProt P35236); assay: HePTP (PTPN7) phosphatase inhibitor potency, SAR follow-up, biochemical, set 2 (AID 449736); format: functional
T8 sequence (P35236 whole entry): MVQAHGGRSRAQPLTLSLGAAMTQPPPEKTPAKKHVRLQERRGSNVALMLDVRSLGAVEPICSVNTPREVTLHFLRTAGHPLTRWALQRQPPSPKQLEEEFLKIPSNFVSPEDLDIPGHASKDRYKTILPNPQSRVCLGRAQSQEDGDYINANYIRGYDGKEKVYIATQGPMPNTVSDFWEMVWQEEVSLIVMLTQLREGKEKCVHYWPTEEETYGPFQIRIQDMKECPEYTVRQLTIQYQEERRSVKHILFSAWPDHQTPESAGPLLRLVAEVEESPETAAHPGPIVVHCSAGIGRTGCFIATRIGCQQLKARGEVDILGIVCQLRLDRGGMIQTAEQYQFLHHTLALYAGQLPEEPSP

[20] = target: T9, Tyrosine-protein phosphatase non-receptor type 22 (Homo sapiens, UniProt Q9Y2R2); assay: SAR LYP1 Fluorescent Assay using OMFP substrate for In Vitro dose response studies - Set 2. [Related pubchem assays (depositor defined):AID1779, AID1784, AID2140, AID449726, AID488869]; format: functional
T9 sequence (Q9Y2R2 whole entry): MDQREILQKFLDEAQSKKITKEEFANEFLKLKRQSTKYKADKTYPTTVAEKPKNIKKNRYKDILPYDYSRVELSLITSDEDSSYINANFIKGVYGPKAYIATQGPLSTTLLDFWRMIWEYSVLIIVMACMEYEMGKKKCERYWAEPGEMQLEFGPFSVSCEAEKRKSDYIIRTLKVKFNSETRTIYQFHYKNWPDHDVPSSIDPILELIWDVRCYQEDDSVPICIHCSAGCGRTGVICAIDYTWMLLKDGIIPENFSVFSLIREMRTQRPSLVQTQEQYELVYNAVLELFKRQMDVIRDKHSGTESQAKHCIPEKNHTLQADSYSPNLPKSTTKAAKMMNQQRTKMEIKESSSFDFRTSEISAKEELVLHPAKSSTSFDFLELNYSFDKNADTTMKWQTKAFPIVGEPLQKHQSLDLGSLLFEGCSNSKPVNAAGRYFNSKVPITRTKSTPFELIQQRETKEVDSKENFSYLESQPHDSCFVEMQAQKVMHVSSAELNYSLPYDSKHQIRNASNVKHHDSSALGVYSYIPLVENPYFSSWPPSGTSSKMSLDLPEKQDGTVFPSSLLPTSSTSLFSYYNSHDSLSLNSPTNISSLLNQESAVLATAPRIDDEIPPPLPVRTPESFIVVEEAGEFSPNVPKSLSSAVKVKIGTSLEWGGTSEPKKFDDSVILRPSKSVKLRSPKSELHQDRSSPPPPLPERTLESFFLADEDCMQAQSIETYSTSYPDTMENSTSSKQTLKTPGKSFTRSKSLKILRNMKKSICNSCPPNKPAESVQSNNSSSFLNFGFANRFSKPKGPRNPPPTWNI

SUMO-activating enzyme [21] = target: T10, SUMO-activating enzyme (Homo sapiens, UniProt Q9UBT2); assay: SUMOylation inhibitor hit validation, confirmation, SUMOylation inhibitor project, biochemical, AlphaScreen (AID 2018); format: functional
T10 sequence (Q9UBE0 whole entry): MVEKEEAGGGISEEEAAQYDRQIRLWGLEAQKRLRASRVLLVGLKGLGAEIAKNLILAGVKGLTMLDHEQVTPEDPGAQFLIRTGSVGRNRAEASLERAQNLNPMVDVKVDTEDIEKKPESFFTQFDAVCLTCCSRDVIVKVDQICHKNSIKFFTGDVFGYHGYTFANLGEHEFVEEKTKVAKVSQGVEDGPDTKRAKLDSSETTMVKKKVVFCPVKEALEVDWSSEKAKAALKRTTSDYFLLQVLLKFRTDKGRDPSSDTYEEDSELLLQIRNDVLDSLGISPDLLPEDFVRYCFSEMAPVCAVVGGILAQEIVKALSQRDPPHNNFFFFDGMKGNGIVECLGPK
T10 sequence (Q9UBT2 whole entry): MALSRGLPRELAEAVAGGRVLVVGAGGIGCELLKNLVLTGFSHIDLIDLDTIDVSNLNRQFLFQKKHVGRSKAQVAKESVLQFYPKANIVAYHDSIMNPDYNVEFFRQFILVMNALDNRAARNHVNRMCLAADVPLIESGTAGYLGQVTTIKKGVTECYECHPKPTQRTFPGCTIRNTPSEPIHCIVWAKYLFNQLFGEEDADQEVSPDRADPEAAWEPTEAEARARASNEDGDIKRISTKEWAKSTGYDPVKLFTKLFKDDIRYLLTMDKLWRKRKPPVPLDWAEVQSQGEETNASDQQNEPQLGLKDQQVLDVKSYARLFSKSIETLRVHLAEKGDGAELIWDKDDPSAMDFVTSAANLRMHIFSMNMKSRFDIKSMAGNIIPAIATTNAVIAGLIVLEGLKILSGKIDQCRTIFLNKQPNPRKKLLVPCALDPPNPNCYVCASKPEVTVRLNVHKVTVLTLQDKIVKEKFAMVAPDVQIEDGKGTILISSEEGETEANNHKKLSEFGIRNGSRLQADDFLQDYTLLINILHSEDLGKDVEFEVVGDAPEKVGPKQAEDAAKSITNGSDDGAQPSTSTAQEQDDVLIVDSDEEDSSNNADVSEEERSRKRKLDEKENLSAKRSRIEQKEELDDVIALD

[22] = target: T9, Tyrosine-protein phosphatase non-receptor type 22; assay: SAR LYP1 Fluorescent Assay using OMFP substrate for In Vitro dose response studies - Set 3. [Related pubchem assays (depositor defined):AID1779, AID1784, AID2140, AID2686]; format: functional
[23] = target: T6, Small ubiquitin-related modifier 1; assay: inhibitors of SUMO1 peptide binding, dose response, biochemical, fluorescence polarization, uHTS hits (AID 624382); format: functional; details: read-out: IC50_Mean
[24] = target: T9, Tyrosine-protein phosphatase non-receptor type 22; assay: LYP (PTPN22) phosphatase inhibitor potency, SAR follow-up, biochemical, pCAP fluorogenic substrate, fluorescence, set 3 (AID 449727); format: functional
SUMO-activating enzyme [25] = target: T10, SUMO-activating enzyme; assay: inhibitors of in vitro SUMOylation cascade, primary screen, biochemical, HTRF, uHTS (AID 2006); format: protein-complex assay
[26] = target: T9, Tyrosine-protein phosphatase non-receptor type 22; assay: SAR LYP1 Fluorescent Assay using pCAP substrate for In Vitro dose response studies - Set 2. [Related pubchem assays (depositor defined):AID1779, AID1784, AID2135, AID449727]; format: functional
[27] = target: T1, Kappa-type opioid receptor; assay: SAR analysis of small molecule antagonists of the kappa opioid receptor via a luminescent beta-arrestin assay - Set 4. [Related pubchem assays (depositor defined):AID1777, AID1778, AID1785, AID1786, AID1966, AID2133, AID2136, AID2285]; format: functional
[28] = target: T1, Kappa-type opioid receptor; assay: SAR analysis of small molecule antagonists of the kappa opioid receptor via a luminescent beta-arrestin assay - Set 5. [Related pubchem assays (depositor defined):AID1778, AID1785]; format: functional

T1 sequence (P41145 whole entry): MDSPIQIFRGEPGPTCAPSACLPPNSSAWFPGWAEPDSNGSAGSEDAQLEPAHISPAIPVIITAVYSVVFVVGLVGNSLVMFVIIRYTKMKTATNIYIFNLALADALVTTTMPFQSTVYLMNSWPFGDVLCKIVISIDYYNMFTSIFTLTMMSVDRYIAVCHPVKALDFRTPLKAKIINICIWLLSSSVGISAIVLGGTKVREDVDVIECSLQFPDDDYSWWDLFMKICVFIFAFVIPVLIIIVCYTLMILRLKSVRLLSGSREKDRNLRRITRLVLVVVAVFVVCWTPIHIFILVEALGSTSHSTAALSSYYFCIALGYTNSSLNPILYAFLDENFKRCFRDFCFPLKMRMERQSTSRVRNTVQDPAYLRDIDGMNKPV
T2 sequence (P41143 whole entry): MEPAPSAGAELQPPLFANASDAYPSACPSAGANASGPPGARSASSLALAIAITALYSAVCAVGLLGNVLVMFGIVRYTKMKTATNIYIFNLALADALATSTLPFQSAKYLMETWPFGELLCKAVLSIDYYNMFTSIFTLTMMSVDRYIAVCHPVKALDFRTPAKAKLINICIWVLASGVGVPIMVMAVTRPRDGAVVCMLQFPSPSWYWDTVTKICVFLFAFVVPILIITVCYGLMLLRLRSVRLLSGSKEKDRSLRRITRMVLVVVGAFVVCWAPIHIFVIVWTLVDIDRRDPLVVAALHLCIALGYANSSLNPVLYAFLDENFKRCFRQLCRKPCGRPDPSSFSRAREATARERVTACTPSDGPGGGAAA

CCCCN(Cc1cc2ccccc2nc1O)C(=O)c1ccccn1
EC50 [1]: 4.27 µM
EC50 [2]: > 32 µM (inactive)
IC50 [3]: > 32 µM (inactive)
EC50 (Mu-type opioid receptor [4]): > 32 µM (inactive)
EC50 [5]: 5.31 µM (active)
EC50 [6]: 8.1 µM (active)
EC50 [7]: > 32 µM (inactive)
IC50 (Mu-type opioid receptor [8]): > 32 µM (inactive)
IC50 [9]: > 32 µM (inactive)
IC50 [10]: > 32 µM (inactive)
EC50 [11]: 3.16 µM
EC50 (Mu-type opioid receptor [12]): > 32 µM (inactive)

CCOC(=O)c1cc2ccc(OC(=O)c3ccco3)cc2oc1=O
EC50 [13]: 2.08 µM (active)
EC50 [14]: 1.99 µM (active)
EC50 [15]: > 50 µM (not active)
EC50 [16]: 785 nM (active)

COc1cc(/C=C(\C#N)C(=O)Nc2cccc(C(=O)O)c2)ccc1OCc1ccc(Cl)cc1
IC50 [17]: 13 µM (active)
IC50 [18]: 2.6 µM (active)
IC50 [19]: 557 nM (active)
IC50 [20]: 4.78 µM (active)
IC50 (SUMO-activating enzyme [21]): 3.61 µM (active)
IC50 [22]: 2.6 µM (active)
IC50 [23]: > 66.6 µM (inactive)
IC50 [24]: 6.59 µM (active)
IC50 (SUMO-activating enzyme [25]): 17.5 µM (active)
IC50 [26]: 6.89 µM (active)

Cc1ccc(S(=O)(=O)NCc2ccc(C(=O)NCCN(C)[C@H](C)c3ccccc3)cc2)cc1
IC50 [27]: 3.38 µM (active)
IC50 [28]: 2.4 µM (active)
